Results on 1 molecule are retold here after patent EP0062319A1, “3-Methyl-1-(2-(3-naphthyloxy)-ethyl)-2-pyrazolin-5-one for the treatment of the metastasis and growth of tumour cells” (BAYER AG, priority 1981, dated 1982).

One experiment deals with Lewis-Lungen-Karzinom. Description: Spontaneous (full) metastasis of subcutaneously injected Lewis lung carcinoma (lung tumour colonies) in mice. It counts as in vivo, C57BL/6J Mäuse. The conditions noted are these: 0.08 mg daily s.c. The source says:
(§1) Wie bereits weiter oben festgestellt wurde, ist die Metastase […], die durch eine Reihe komplizierter Vorgänge dargestellt wird. Gegenwärtig finden zwei "Modell"-Systeme für die Untersuchung der in vivo-Metastase verbreitete Anwendung. Das erste Modellsystem umfaßt die subkutane Injektion der Tumorzellen in das Tier. Die subkutane Injektion der Tumorzellen und anschließende Entwicklung eines Primärtumors, gefolgt von spontaner Metastase, wird als "volle" Metastase betrachtet. Ein anderes Modellsystem umfaßt die Injektion der Tumorzellen durch die Schwanzvene. In Anbetracht der Komplexität der Metastase gilt die Schwanzvenen-Injektion als künstliches und nur partielles Modellsystem, da es nur die Vorgänge während des letzteren Teils der Metastase wiedergibt. Das Schwanzvenen-Modellsystem gilt jedoch auch als außerordentlich günstig im Hinblick auf eine Standardisierung der Versuchsbedingungen [vgl."Methods in Cancer Research", Kapitel VII, Academic Press, Inc., 1978].
Als Kontrolltiere wurden (unbehandelte) C57B1/6J-Mäuse nach folgender Arbeitsweise auf volle Metastase untersucht. Zellsuspensionen der B-16 - und 3LL-Karzinom-Zellen, die wie oben unter A und B beschrieben erhalten worden waren, wurden subkutan in die rechte Achselhöhlenregion der männlichen C57BL/6J-Mäuse injiziert (0,66 mm- = 26 gauge -Nadel; 0,2 ml). […]

Experiment [1] deals with B-16a-amelanotischen Melanom-Zellen. Description: Metastasis of tail-vein injected B-16a melanoma cells (lung tumour colonies) in mice. Type of experiment: in vivo, C57BL/6J Mäuse. The conditions noted are these: 5 x 10^4 cells i.v., mean ± SEM, n = 6.
From the text: as §1
Als Kontrolltiere wurden (unbehandelte) C57B1/6J-Mäuse nach folgender Arbeitsweise auf volle Metastase untersucht. Zellsuspensionen der B-16 - und 3LL-Karzinom-Zellen, die wie oben unter A und B beschrieben erhalten worden waren, wurden subkutan in die rechte Achselhöhlenregion der männlichen C57BL/6J-Mäuse injiziert (0,66 mm- = 26 gauge -Nadel; 0,2 ml). Injiziert wurden verschiedene Mengen der Zellsuspensionen im Bereich von 1 x 10^5 bis 1 x 10^6 Zellen. Versuche zur partiellen Metastase wurden in der Weise durchgeführt, daß Tumorzellen über die Schwanzvene in die (unbehandelten) Kontroll-Mäuse injiziert wurden. Die Tiere wurden unter identischen Bedingungen der Temperatur, Lichteinwirkungsdauer, Ernährung etc. gehalten. Nach einem Beobachtungszeitraum von 17 bis 30 Tagen wurden die für die volle Metastase und für die partielle Metastase verwendeten Tiere getötet, und die Lungen, Leber, Nieren, Milz und Gehirn-Gewebe wurde entnommen.
Das entnommene Gewebe wurde in Bouin-Lösung fixiert.
Die Zahl der metastatischen Knötchen in jedem Organ wurde mit Hilfe eines Bausch-und-Lomb Stereo-Zoom-Mikroskops bestimmt. Die Untersuchung der Kontroll- Mäuse auf metastatische Knötchen ergab bei 100 % der Tiere positive Befunde in bezug auf metastatische Lungentumoren; die Inkubationszeit für die Erzeugung solcher Metastasen betrug für die 3LL-Tumorzellen 17 bis 21 Tage und für die B-16 a -Tumorzellen 23 bis 30 Tage. In Leber, Nieren, Milz oder Gehirn-Gewebe wurden keine sichtbaren Knötchen beobachtet.
3 mg 3-Methyl-1-[2-(2-naphthyloxy)-ethyl]-2-pyrazolin-5-on wurden in 0,6 ml absolutem Ethylalkohol suspendiert. Das suspendierte Pyrazolon wurde durch Einstellen des pH auf 9,5 mit NaOH gelöst. […]

Another experiment has as its system B-16 -Melanom-Zellen. Description: Tumour cell proliferation and viability in tissue culture. Type of experiment: cell-based, Mäuse. The conditions noted are these: 0,1 to 25 µg/ml; cell counts after 8 days; Fig. 2. The source says: Die antineoplastische Wirksamkeit wurde außerdem durch direkte Messung des Wachstums der Tumorzellen in vitro in Gewebekulturen bestimmt. Diese Methode bedient sich des "Plating" oder Aufimpfens einer bekannten Anzahl von Tumorzellen auf ein Wachstumsmedium und der Bestimmung der Wirkung der Anwesenheit der zu prüfenden Verbindung auf die Tumorzellen-Proliferation. […] wurde die antineoplastische Aktivität in vivo in der Weise bestimmt, daß den Mäusen subkutan Tumorzellen injiziert wurden und das Auftreten von […] sowie […] in unbehandelten Kontrolltieren und in mit der Pyrazolon-Verbindung behandelten […] worden […] von 3 x 10^4 Zellen pro Platte überimpft. Die Zellen wurden in einem Medium aus MEM, Hank's Basic Salt Solution und 10 % […] bei Microbiological Associates, Walkersville, Maryland, kultiviert. Nach 24-stündiger Inkubation bei 37°C wurden die ZellZählungen durch […] Medium wurde […] und durch das oben bezeichnete.Medium und Pyrazolon in einem von 0,1 bis 25 μg/ml […]. Die Kontrollgruppen erhielten nur einen Austausch des Mediums. Danach wurde das Pyrazolon enthaltende Medium jeden zweiten Tag ersetzt. Nach 8 Tagen wurden Zellzählungen wie oben beschrieben durchgeführt, und die Lebensfähigkeit der Zellen wurde nach der weiter oben genannten Vitalfarbstoff-Ausschlußmethode (vital dye exclusive method) bestimmt. Die Daten sind dargestellt als Mittelwert der Zahl […] aus […]. […]

For the molecule `CC1=NN(CCOc2ccc3ccccc3c2)C(=O)C1` [3-Methyl-1-[2-(2-naphthyloxy)-ethyl]-2-pyrazolin-5-on], the “Lungen-Tumor-Kolonien Lewis-Lungen-Zellen” value in the experiment on Lewis-Lungen-Karzinom (1 x 10^5 cells s.c., killed day 21, mean ± SEM) is 0.8 ± 0.5. For the same molecule, the “Lungen-Tumor-Kolonien Lewis-Lungen-Zellen (fraction in brackets)” value in the experiment on Lewis-Lungen-Karzinom (bracketed fraction) is 2/12. Moreover, the Lungen-Tumor-Kolonien is reported as 19.3 ± 7.5 in experiment [1] (0.02 mg/mouse s.c. daily for 3 days before tumour cell injection, lungs 14 days later); 65 ± 36 in experiment [1] (0.08 mg, second line of the table (presumably injected 1 h before the tumour cells)); 2.7 ± 1.3 in experiment [1] (0.08 mg/mouse s.c. daily for 3 days before tumour cell injection, lungs 14 days later). In addition, the Tumorzellen-Proliferation result in the experiment on B-16 -Melanom-Zellen is “die Tumorzellen-Proliferation über den gleichen Dosierungsbereich hemmte”.
